Results as given in the supplement of paper PMC10331698.
± gives the standard deviation of the averaged measurements.

Columns and labels:
Test in all cases: level (log10 ratio to DMSO vehicle control); higher = higher biomarker level / cell amount than vehicle control
Conditions in all cases: in DMSO
[1] = compound: NC(=O)C(F)(F)C(F)(F)C(F)(F)C(F)F
Procedure: (§1)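 BioMAP Diversity Plus panel of 12 human primary cell co-culture systems (3C, 4H, LPS, SAg, BT, BF4T, BE3C, CASM3C, HDF3CGF, KF3CT, MyoF, Mphg). Compounds were added 1 h before stimulation and left for 24 h (MyoF 48 h; BT 72 h for soluble read-outs or 6 d for IgG). Biomarkers were read by ELISA, cytotoxicity by SRB, PBMC viability and proliferation by Alamar Blue. Each well value was divided by the mean of 8 DMSO control wells on the same plate and log10 transformed; duplicate blinded samples were tested at 4 concentrations.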

Heptafluorobutyl iodide = compound: FC(F)(F)C(F)(F)C(F)(F)CI [Heptafluorobutyl iodide]
Procedure: as §1

[2] = compound: FC(F)(F)C(F)(F)CNCC(F)(F)C(F)(F)F [Bis(1H,1H-perfluoropropyl)amine]
Procedure: as §1

Nonafluoropentanamide = compound: NC(=O)C(F)(F)C(F)(F)C(F)(F)C(F)(F)F [Nonafluoropentanamide]
Procedure: as §1

[3] = compound: O=C(O)C=CC(F)(C(F)(F)F)C(F)(F)F [3-(Perfluoroisopropyl)-2-propenoic acid]
Procedure: as §1

[4] = compound: O=S(=O)(O)C(F)(F)C(F)(F)C(F)(F)C(F)(F)C(F)(F)C(F)(F)C(F)(F)C(F)(F)C(F)(F)C(F)(F)F [Sodium perfluorodecanesulfonate]
Procedure: as §1

Row | Test System | level (log10) ([1]; 6700 nM) | level (log10) ([1]; 20000 nM) | level (log10) ([1]; 60000 nM) | level (log10) (Heptafluorobutyl iodide; 6700 nM) | level (log10) (Heptafluorobutyl iodide; 20000 nM) | level (log10) (Heptafluorobutyl iodide; 60000 nM) | level (log10) ([2]; 6700 nM) | level (log10) ([2]; 20000 nM) | level (log10) ([2]; 60000 nM) | level (log10) (Nonafluoropentanamide; 6700 nM) | level (log10) (Nonafluoropentanamide; 20000 nM) | level (log10) (Nonafluoropentanamide; 60000 nM) | level (log10) ([3]; 6700 nM) | level (log10) ([3]; 20000 nM) | level (log10) ([3]; 60000 nM) | level (log10) ([4]; 1500 nM) | level (log10) ([4]; 4400 nM) | level (log10) ([4]; 13000 nM) | level (log10) ([4]; 40000 nM)
1 | BF4T:PAI-I | -0.0005 ± 0.019 | -0.0095 ± 0.021 | 0.004 ± 0.0085 | 0.0005 ± 0.0092 | -0.002 ± 0.0042 | 0.0065 ± 0.021 | -0.008 ± 0.0014 | -0.005 | 0.006 ± 0.016 | -0.0145 ± 0.0064 | -0.0055 ± 0.0035 | 0.0015 ± 0.021 | 0 ± 0.0099 | 0.001 ± 0.0014 | 0.0155 ± 0.026 | -0.0015 ± 0.0092 | 0.0175 ± 0.005 | 0.0125 ± 0.0035 | 0.021 ± 0.0071
2 | LPS:CD142/Tissue Factor | -0.0215 ± 0.00071 | 0.005 ± 0.0028 | -0.007 ± 0.0014 | -0.046 ± 0.1 | -0.013 ± 0.082 | 0.0295 ± 0.043 | 0.019 ± 0.073 | -0.007 ± 0.099 | 0.0095 ± 0.13 | 0.0085 ± 0.019 | 0.0165 ± 0.0078 | -0.013 ± 0.017 | 0.0105 ± 0.0078 | -0.021 ± 0.025 | 0.006 ± 0.021 | -0.0155 ± 0.043 | -0.011 ± 0.021 | -0.06 ± 0.0042 | -0.177 ± 0.1
3 | SAg:CD40 | -0.023 ± 0.0028 | -0.0155 ± 0.019 | -0.02 ± 0.028 | -0.027 ± 0.011 | -0.0445 ± 0.016 | -0.024 ± 0.016 | 0.011 ± 0.017 | 0.0025 ± 0.0064 | -0.003 ± 0.02 | -0.0145 ± 0.033 | 0.0055 ± 0.013 | 0.002 ± 0.018 | -0.006 ± 0.058 | -0.005 ± 0.04 | -0.038 ± 0.014 | -0.0185 ± 0.032 | -0.042 ± 0.025 | -0.103 ± 0.055 | -0.212 ± 0.055
4 | BT:B cell Proliferation | 0.0115 ± 0.0092 | -0.001 | 0.0215 ± 0.0092 | 0.021 ± 0.021 | 0.015 ± 0.0071 | 0.021 ± 0.0042 | -0.005 ± 0.04 | 0.0145 ± 0.00071 | 0.0285 ± 0.0035 | 0.032 ± 0.0028 | -0.023 ± 0.0042 | 0.0085 ± 0.0092 | 0.0085 ± 0.0021 | -0.011 ± 0.0014 | 0.012 ± 0.037 | 0.0005 ± 0.021 | 0.0065 ± 0.0078 | 0.0015 ± 0.0035 | 0.0125 ± 0.0078
5 | BF4T:tPA | -0.0005 ± 0.021 | -0.0115 ± 0.022 | 0.0125 ± 0.005 | -0.016 ± 0.0042 | -0.0235 ± 0.0078 | -0.009 ± 0.05 | -0.062 ± 0.035 | -0.054 ± 0.023 | -0.0335 ± 0.0035 | -0.021 ± 0.018 | -0.043 ± 0.023 | -0.0405 ± 0.0078 | -0.004 ± 0.037 | -0.0055 ± 0.022 | 0.03 ± 0.024 | 0.01 ± 0.0071 | 0.0175 ± 0.059 | 0.075 ± 0.018 | 0.068 ± 0.016
6 | LPS:CD141/Thrombomodulin | -0.037 ± 0.023 | -0.0225 ± 0.028 | -0.02 ± 0.021 | 0.0135 ± 0.14 | 0.0175 ± 0.14 | 0.0485 ± 0.1 | 0.046 ± 0.088 | 0.0005 ± 0.14 | -0.0095 ± 0.096 | 0.005 ± 0.027 | 0.018 ± 0.035 | 0.0435 ± 0.035 | -0.024 ± 0.037 | -0.022 ± 0.0057 | -0.036 ± 0.02 | -0.0315 ± 0.0064 | 0.0015 ± 0.046 | -0.021 ± 0.0071 | 0.071 ± 0.047
